Experimental findings from article PMC8443048 (PLoS Pathogens, 2021) are described below.

SMILES strings stand for the structures.

This assay addresses T1, isocitrate lyase (ICL) (Brucella abortus, UniProt Q2YQA0).
T1 construct: gene BAB1_1631
The conditions noted are these: covalent; adduct with Cys185; active site.

T1 sequence (Q2YQA0 1-429): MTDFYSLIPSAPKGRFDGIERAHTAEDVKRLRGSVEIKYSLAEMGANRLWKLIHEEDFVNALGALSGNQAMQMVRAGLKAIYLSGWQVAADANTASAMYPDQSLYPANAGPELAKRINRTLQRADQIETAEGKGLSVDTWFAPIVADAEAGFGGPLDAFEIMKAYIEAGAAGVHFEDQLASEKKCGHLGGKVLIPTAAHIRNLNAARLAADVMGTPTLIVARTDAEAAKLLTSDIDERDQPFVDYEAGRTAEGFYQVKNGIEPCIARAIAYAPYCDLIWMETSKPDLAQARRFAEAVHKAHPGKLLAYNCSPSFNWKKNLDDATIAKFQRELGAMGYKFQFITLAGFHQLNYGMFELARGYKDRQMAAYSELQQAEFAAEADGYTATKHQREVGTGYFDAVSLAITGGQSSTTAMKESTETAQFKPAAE

Take `C=C(CC(=O)O)C(=O)O` [itaconate]: the “X-ray crystallography of the complex, 1.8 Å” value was “unambiguously shows a covalent adduct between itaconate and Cys185 in B. abortus isocitrate lyase”.
